Assay [1] relates to Beet Armyworm (Spodoptera exigua, LAPHEG). The assay is described as follows: Bioassay on Beet Armyworm (BAW), 128-well diet tray assay. In kind it is in vivo. The note with it: 168 h, 50 μg/cm^2 of test molecule on artificial diet, second instar larvae, 25° C., five to seven days, average of eight wells, read-out: BAW % Control (or Mortality) rating. The protocol:
(§1) Certain molecules disclosed in this document were tested against BAW and CL using procedures described in the following examples. In the reporting of the results, the “BAW & CL Rating Table” was used (See Table Section).
Bioassays on BAW were conducted using a 128-well diet tray assay. One to five second instar BAW larvae were placed in each well (3 mL) of the diet tray that had been previously filled with 1 mL of artificial diet to which 50 μg/cm^2 of the test molecule (dissolved in 50 μL of 90:10 acetone-water mixture) had been applied (to each of eight wells) and then allowed to dry. Trays were covered with a clear self-adhesive cover, vented to allow gas exchange, and held at 25° C., 14:10 light-dark for five to seven days. Percent mortality was recorded for the larvae in each well; activity in the eight wells was then averaged. The results are indicated in the table entitled “Table ABC: Biological Results” (See Table Section).

The subject of assay [2] is Cabbage Looper (Trichoplusia ni, TRIPNI). In words: Bioassay on Cabbage Looper (CL), 128-well diet tray assay. Type of assay: in vivo. The note with it: 168 h, 50 μg/cm^2 of test molecule on artificial diet, second instar larvae, 25° C., five to seven days, average of eight wells, read-out: CL % Control (or Mortality) rating. On the procedure: as §1
Bioassays on CL were conducted using a 128-well diet tray assay. One to five second instar CL larvae were placed in each well (3 mL) of the diet tray that had been previously filled with 1 mL of artificial diet to which 50 μg/cm^2 of the test molecule (dissolved in 50 μL of 90:10 acetone-water mixture) had been applied (to each of eight wells) and then allowed to dry. Trays were covered with a clear self-adhesive cover, vented to allow gas exchange, and held at 25° C., 14:10 light-dark for five to seven days. Percent mortality was recorded for the larvae in each well; activity in the eight wells was then averaged. The results are indicated in the table entitled “Table ABC: Biological Results” (See Table Section).

In general, mortality refers to the share of the test organisms that died.

In the case of `Cc1ccc(C(C)C)c(N2C(=O)CS/C2=N\C(=O)NCOc2ccc(-c3ncn(-c4ccc(OC(F)(F)F)cc4)n3)cc2)c1` [Compound F1, (Z)-1-(3-(2-isopropyl-5-methylphenyl)-4-oxothiazolidin-2-ylidene)-3-((4-(1-(4-(trifluoromethoxy)phenyl)-1H-1,2,4-triazol-3-yl)phenoxy)methyl)urea], the mortality at 50 µg/cm2 in assay [1] and in assay [2] was 50 to 100% in each case.

`COc1ccc(CC(F)(F)F)c(N2C(=O)CS/C2=N\C(=O)NCOc2ccc(-c3ncn(-c4ccc(OC(F)(F)F)cc4)n3)cc2)c1` [Compound F2, (Z)-1-(3-(5-Methoxy-2-(2,2,2-trifluoroethyl)phenyl)-4-oxothiazolidin-2-ylidene)-3-((4-(1-(4-(trifluoromethoxy)phenyl)-1H-1,2,4-triazol-3-yl)phenoxy)methyl)urea]: the mortality at 50 µg/cm2 in assay [1] and in assay [2] was 50 to 100% throughout.

As for `Cc1ccc(OCC(F)(F)F)c(N2C(=O)CS/C2=N\C(=O)NCOc2ccc(-c3ncn(-c4ccc(OC(F)(F)F)cc4)n3)cc2)c1` [Compound F23, (Z)-1-(3-(5-Methyl-2-(2,2,2-trifluoroethoxy)phenyl)-4-oxothiazolidin-2-ylidene)-3-((4-(1-(4-(trifluoromethoxy)phenyl)-1H-1,2,4-triazol-3-yl)phenoxy)methyl)urea], the mortality at 50 µg/cm2 in assay [1] and in assay [2] was 50 to 100% each time.

With `Cc1ccc(C(C)C)c(N2C(=O)CS/C2=N\C(=O)NC(C)Oc2ccc(-c3ncn(-c4ccc(OC(F)(F)F)cc4)n3)cc2)c1` (stereo not drawn) [Compound F24, (Z)-1-(3-(2-Isopropyl-5-methylphenyl)-4-oxothiazolidin-2-ylidene)-3-(1-(4-(1-(4-(trifluoromethoxy)phenyl)-1H-1,2,4-triazol-3-yl)phenoxy)ethyl)urea], the mortality at 50 µg/cm2 in assay [1] and in assay [2] was 50 to 100% throughout.

As for `CCOc1ccccc1N1C(=O)CS/C1=N\C(=O)NCOc1ccc(-c2ncn(-c3ccc(OC(F)(F)F)cc3)n2)cc1` [Compound F25, (Z)-1-(3-(2-Ethoxyphenyl)-4-oxothiazolidin-2-ylidene)-3-((4-(1-(4-(trifluoromethoxy)phenyl)-1H-1,2,4-triazol-3-yl)phenoxy)methyl)urea], the mortality at 50 µg/cm2 in assay [1] and in assay [2] was 50 to 100% throughout.

Turning to `COC(=O)c1ccc(N2C(=O)CS/C2=N\C(=O)NCOc2ccc(-c3ncn(-c4ccc(OC(F)(F)F)cc4)n3)cc2)c(C)c1` [Compound F26, Methyl (Z)-3-methyl-4-(4-oxo-2-((((4-(1-(4-(trifluoromethoxy)phenyl)-1H-1,2,4-triazol-3-yl)phenoxy)methyl)carbamoyl)imino)thiazolidin-3-yl)benzoate], the mortality at 50 µg/cm2 is 0% in assay [1] and 50 to 100% in assay [2].

Take `O=C(/N=C1\SCC(=O)N1c1cccc2c1CCCC2)NCOc1ccc(-c2ncn(-c3ccc(OC(F)(F)F)cc3)n2)cc1` [Compound F27, (Z)-1-(4-Oxo-3-(5,6,7,8-tetrahydronaphthalen-1-yl)thiazolidin-2-ylidene)-3-((4-(1-(4-(trifluoromethoxy)phenyl)-1H-1,2,4-triazol-3-yl)phenoxy)methyl)urea]: the mortality at 50 µg/cm2 in assay [1] and in assay [2] was 50 to 100% throughout.

In the case of `CCCCc1ccccc1N1C(=O)CS/C1=N\C(=O)NCOc1ccc(-c2ncn(-c3ccc(OC(F)(F)F)cc3)n2)cc1` [Compound F28, (Z)-1-(3-(2-Butylphenyl)-4-oxothiazolidin-2-ylidene)-3-((4-(1-(4-(trifluoromethoxy)phenyl)-1H-1,2,4-triazol-3-yl)phenoxy)methyl)urea], the mortality at 50 µg/cm2 is 0% in assay [1] and 0 to 50% in assay [2].

As to `Cc1ccc(F)c(N2C(=O)CS/C2=N\C(=O)NCOc2ccc(-c3ncn(-c4ccc(OC(F)(F)F)cc4)n3)cc2)c1` [Compound F29, (Z)-1-(3-(2-Fluoro-5-methylphenyl)-4-oxothiazolidin-2-ylidene)-3-((4-(1-(4-(trifluoromethoxy)phenyl)-1H-1,2,4-triazol-3-yl)phenoxy)methyl)urea], the mortality at 50 µg/cm2 in assay [1] and in assay [2] was 50 to 100% each time.

As for `CCc1cccc(C)c1N1C(=O)CS/C1=N\C(=O)NCOc1ccc(-c2ncn(-c3ccc(OC(F)(F)F)cc3)n2)cc1` [Compound F30, (Z)-1-(3-(2-Ethyl-6-methylphenyl)-4-oxothiazolidin-2-ylidene)-3-((4-(1-(4-(trifluoromethoxy)phenyl)-1H-1,2,4-triazol-3-yl)phenoxy)methyl)urea], the mortality at 50 µg/cm2 in assay [1] and in assay [2] was 50 to 100% throughout.

`CSC(C)c1ccccc1N1C(=O)CS/C1=N\C(=O)NCOc1ccc(-c2ncn(-c3ccc(OC(F)(F)F)cc3)n2)cc1` (stereo not drawn) [Compound F31, (Z)-1-(3-(2-(1-(methylthio)ethyl)phenyl)-4-oxothiazolidin-2-ylidene)-3-((4-(1-(4-(trifluoromethoxy)phenyl)-1H-1,2,4-triazol-3-yl)phenoxy)methyl)urea]: the mortality at 50 µg/cm2 in assay [1] and in assay [2] was 50 to 100% throughout.

As for `COc1ccc(N2C(=O)CS/C2=N\C(=O)NCOc2ccc(-c3ncn(-c4ccc(OC(F)(F)F)cc4)n3)cc2)c(C)c1` [Compound F32, (Z)-1-(3-(4-Methoxy-2-methylphenyl)-4-oxothiazolidin-2-ylidene)-3-((4-(1-(4-(trifluoromethoxy)phenyl)-1H-1,2,4-triazol-3-yl)phenoxy)methyl)urea], the mortality at 50 µg/cm2 in assay [1] and in assay [2] was 50 to 100% throughout.
